From US20250011368A1, “DLL3 TARGETING PEPTIDES AND CONSTRUCTS THEREOF” (MARIANA ONCOLOGY INC., priority 2023, published 2025)
Numbered stars: 1 amine (or outer) side, 2 acyl side, 3 side chain; on linkers, the order of the positions; unused ones are H or OH. Bridge positions count the residues as written; N and C are the ends. Square brackets hold non-standard residues; d marks the D form. Peptide text beside a SMILES is read from it. * marks the point of attachment. DOTA = O=C(O)CN1CCN(CC(=O)O)CCN(CC(=O)*)CCN(CC(=O)O)CC1; Phe(4-CF3) = N[C@@H](Cc1ccc(C(F)(F)F)cc1)C(=O)O; Trp(5-F) = N[C@@H](Cc1c[nH]c2ccc(F)cc12)C(=O)O; Phe(2-CF3) = N[C@@H](Cc1ccccc1C(F)(F)F)C(=O)O; Trp(7-aza) = N[C@@H](Cc1c[nH]c2ncccc12)C(=O)O; X5 = O=C([C@H](CC1C=NC2N=CC=CC12)N[*:1])[*:2]; Pro(trans-4-F) = O=C(O)[C@@H]1C[C@@H](F)CN1; Gly(4-THP) = N[C@H](C(=O)O)C1CCOCC1; Nva(3-Et) = CCC(CC)[C@H](N)C(=O)O; Cha = N[C@@H](CC1CCCCC1)C(=O)O; Cba = N[C@@H](CC1CCC1)C(=O)O; Chg = N[C@H](C(=O)O)C1CCCCC1; Tle = CC(C)(C)[C@H](N)C(=O)O; Nle = CCCC[C@H](N)C(=O)O; Aze = O=C(O)[C@@H]1CCN1

target: T1, human DLL3 (Homo sapiens, UniProt Q9NYJ7); assay: Affinity determination by Surface Plasmon Resonance (SPR); type: binding; details: 25° C., biotinylated human DLL3 immobilized on streptavidin sensor chip, 1:1 binding model; read-out: SPR KD
T1 sequence (Q9NYJ7 27-618): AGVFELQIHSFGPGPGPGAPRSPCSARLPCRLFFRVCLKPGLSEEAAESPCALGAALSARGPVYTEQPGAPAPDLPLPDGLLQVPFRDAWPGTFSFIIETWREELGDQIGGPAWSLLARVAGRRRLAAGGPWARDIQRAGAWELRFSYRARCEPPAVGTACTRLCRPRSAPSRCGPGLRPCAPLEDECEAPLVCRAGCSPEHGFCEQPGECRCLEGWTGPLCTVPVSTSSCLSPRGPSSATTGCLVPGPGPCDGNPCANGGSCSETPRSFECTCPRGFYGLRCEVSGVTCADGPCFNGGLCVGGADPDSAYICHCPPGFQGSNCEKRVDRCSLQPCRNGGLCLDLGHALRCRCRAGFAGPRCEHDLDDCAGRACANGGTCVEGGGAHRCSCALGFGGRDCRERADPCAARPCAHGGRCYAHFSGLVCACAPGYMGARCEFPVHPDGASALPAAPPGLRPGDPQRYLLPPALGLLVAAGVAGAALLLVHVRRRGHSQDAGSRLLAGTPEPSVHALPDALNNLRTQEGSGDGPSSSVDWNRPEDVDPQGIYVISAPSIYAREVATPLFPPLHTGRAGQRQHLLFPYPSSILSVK
Method in brief: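 Biotinylated human DLL3 was captured on a streptavidin chip with a reference surface. Compounds at several concentrations were injected at 100 μL/minute in phosphate buffer (137 mM NaCl, 2.7 mM KCl, 0.05% P20, 2% DMSO). Affinity and kinetics came from 1:1 model fits of the sensorgrams.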

Compound | Kd [nM]
CCC(CC)[C@H](NC(=O)[C@@H](NC(=O)[C@H](Cc1c[nH]c2ccc(F)cc12)NC(C)=O)[C@@H](C)O)C(=O)N[C@H]1CSSC[C@@H](C(=O)N[C@@H](Cc2c[nH]c3ncccc23)C(=O)N2CC[C@H]2C(=O)N[C@H](CCCCNC(=O)CN2CCN(CC(=O)O)CCN(CC(=O)O)CCN(CC(=O)O)CC2)C(N)=O)NC(=O)[C@H](CC(=O)O)NC(=O)[C@H](Cc2c[nH]cn2)NC(=O)[C@H](Cc2ccc(C(F)(F)F)cc2)NC(=O)[C@H](CC(N)=O)NC(=O)[C@H](CC(N)=O)NC1=O [compound 138, Ac-(5Fluoro-W)-T-(Env)-C(3)-N-N-(4CF3-F)-H-D-C(3)-(7Aza-W)-(Aze)-[D-Lys(DOTA)]-NH2] (Ac-[Trp(5-F)]T[Nva(3-Et)]CNN[Phe(4-CF3)]HDC[Trp(7-aza)][Aze][dK](DOTA)-NH2; disulfide 4-10) | 10 to 100
CC(=O)N[C@@H](Cc1c[nH]c2ccc(F)cc12)C(=O)N[C@H](C(=O)N[C@@H](Cc1ccccc1C(F)(F)F)C(=O)N[C@H]1CSSC[C@@H](C(=O)N[C@@H](Cc2c[nH]c3ncccc23)C(=O)N2CC[C@H]2C(=O)N[C@H](CCCCNC(=O)CN2CCN(CC(=O)O)CCN(CC(=O)O)CCN(CC(=O)O)CC2)C(N)=O)NC(=O)[C@H](CC(=O)O)NC(=O)[C@H](Cc2cnc[nH]2)NC(=O)[C@H](Cc2ccc(C(F)(F)F)cc2)NC(=O)[C@H](CC(N)=O)NC(=O)[C@H](CC(N)=O)NC1=O)[C@@H](C)O [compound 144, Ac-(5Fluoro-W)-T-(2CF3-F)-C(3)-N-N-(4CF3-F)-H-D-C(3)-(7Aza-W)-(Aze)-[D-Lys(DOTA)]-NH2] (Ac-[Trp(5-F)]T[Phe(2-CF3)]CNN[Phe(4-CF3)]HDC[Trp(7-aza)][Aze][dK](DOTA)-NH2; disulfide 4-10) | 1 to 10
CC(=O)N[C@@H](Cc1c[nH]c2ccc(F)cc12)C(=O)N[C@H](C(=O)N[C@H](C(=O)N[C@H]1CSSC[C@@H](C(=O)N[C@@H](CC2C=NC3N=CC=CC23)C(=O)N2C[C@H](F)C[C@H]2C(=O)N[C@H](CCCCNC(=O)CN2CCN(CC(=O)O)CCN(CC(=O)O)CCN(CC(=O)O)CC2)C(N)=O)NC(=O)[C@H](CC(=O)O)NC(=O)[C@H](Cc2cnc[nH]2)NC(=O)[C@H](Cc2ccc(C(F)(F)F)cc2)NC(=O)[C@H](CC(N)=O)NC(=O)[C@H](CC(N)=O)NC1=O)C(C)(C)C)[C@@H](C)O (stereo partly drawn) [compound 145, Ac-(5Fluoro-W)-T-(Tbg)-C(3)-N-N-(4CF3-F)-H-D-C(3)-(7Aza-W)-(trans4Fluoro-P)-[D-Lys(DOTA)]-NH2] (Ac-[Trp(5-F)]T[Tle]CNN[Phe(4-CF3)]HDC[X5][Pro(trans-4-F)][dK](DOTA)-NH2; disulfide 4-10) | 1 to 10
CCCC[C@H](NC(=O)[C@@H](NC(=O)[C@H](Cc1c[nH]c2ccc(F)cc12)NC(C)=O)[C@@H](C)O)C(=O)N[C@H]1CSSC[C@@H](C(=O)N[C@@H](Cc2c[nH]c3ncccc23)C(=O)N2C[C@H](F)C[C@H]2C(=O)N[C@H](CCCCNC(=O)CN2CCN(CC(=O)O)CCN(CC(=O)O)CCN(CC(=O)O)CC2)C(N)=O)NC(=O)[C@H](CC(=O)O)NC(=O)[C@H](Cc2c[nH]cn2)NC(=O)[C@H](Cc2ccc(C(F)(F)F)cc2)NC(=O)[C@H](CC(N)=O)NC(=O)[C@H](CC(N)=O)NC1=O [compound 148, Ac-(5Fluoro-W)-T-(Nle)-C(3)-N-N-(4CF3-F)-H-D-C(3)-(7Aza-W)-(trans4Fluoro-P)-[D-Lys(DOTA)]-NH2] (Ac-[Trp(5-F)]T[Nle]CNN[Phe(4-CF3)]HDC[Trp(7-aza)][Pro(trans-4-F)][dK](DOTA)-NH2; disulfide 4-10) | 1 to 10

Results, then the compound that gave them:

Kd [nM] | Compound
1 to 10 | CC(=O)N[C@@H](Cc1c[nH]c2ccc(F)cc12)C(=O)N[C@H](C(=O)N[C@H](C(=O)N[C@H]1CSSC[C@@H](C(=O)N[C@@H](Cc2c[nH]c3ncccc23)C(=O)N2CC[C@H]2C(=O)N[C@H](CCCCNC(=O)CN2CCN(CC(=O)O)CCN(CC(=O)O)CCN(CC(=O)O)CC2)C(N)=O)NC(=O)[C@H](CC(=O)O)NC(=O)[C@H](Cc2cnc[nH]2)NC(=O)[C@H](Cc2ccc(C(F)(F)F)cc2)NC(=O)[C@H](CC(N)=O)NC(=O)[C@H](CC(N)=O)NC1=O)C1CCOCC1)[C@@H](C)O [compound 139, Ac-(5Fluoro-W)-T-(THPG)-C(3)-N-N-(4CF3-F)-H-D-C(3)-(7Aza-W)-(Aze)-[D-Lys(DOTA)]-NH2] (Ac-[Trp(5-F)]T[Gly(4-THP)]CNN[Phe(4-CF3)]HDC[Trp(7-aza)][Aze][dK](DOTA)-NH2; disulfide 4-10)
10 to 100 | CCCC[C@H](NC(=O)[C@@H](NC(=O)[C@H](Cc1c[nH]c2ccc(F)cc12)NC(C)=O)[C@@H](C)O)C(=O)N[C@H]1CSSC[C@@H](C(=O)N[C@@H](Cc2c[nH]c3ncccc23)C(=O)N2CC[C@H]2C(=O)N[C@H](CCCCNC(=O)CN2CCN(CC(=O)O)CCN(CC(=O)O)CCN(CC(=O)O)CC2)C(N)=O)NC(=O)[C@H](CC(=O)O)NC(=O)[C@H](Cc2cnc[nH]2)NC(=O)[C@H](Cc2ccc(C(F)(F)F)cc2)NC(=O)[C@H](CC(N)=O)NC(=O)[C@H](CC(N)=O)NC1=O [compound 140, Ac-(5Fluoro-W)-T-(Nle)-C(3)-N-N-(4CF3-F)-H-D-C(3)-(7Aza-W)-(Aze)-[D-Lys(DOTA)]-NH2] (Ac-[Trp(5-F)]T[Nle]CNN[Phe(4-CF3)]HDC[Trp(7-aza)][Aze][dK](DOTA)-NH2; disulfide 4-10)
1 to 10 | CC(=O)N[C@@H](Cc1c[nH]c2ccc(F)cc12)C(=O)N[C@H](C(=O)N[C@@H](CC1CCCCC1)C(=O)N[C@H]1CSSC[C@@H](C(=O)N[C@@H](Cc2c[nH]c3ncccc23)C(=O)N2CC[C@H]2C(=O)N[C@H](CCCCNC(=O)CN2CCN(CC(=O)O)CCN(CC(=O)O)CCN(CC(=O)O)CC2)C(N)=O)NC(=O)[C@H](CC(=O)O)NC(=O)[C@H](Cc2cnc[nH]2)NC(=O)[C@H](Cc2ccc(C(F)(F)F)cc2)NC(=O)[C@H](CC(N)=O)NC(=O)[C@H](CC(N)=O)NC1=O)[C@@H](C)O [compound 141, Ac-(5Fluoro-W)-T-(CHA)-C(3)-N-N-(4CF3-F)-H-D-C(3)-(7Aza-W)-(Aze)-[D-Lys(DOTA)]-NH2] (Ac-[Trp(5-F)]T[Cha]CNN[Phe(4-CF3)]HDC[Trp(7-aza)][Aze][dK](DOTA)-NH2; disulfide 4-10)
1 to 10 | CC(=O)N[C@@H](Cc1c[nH]c2ccc(F)cc12)C(=O)N[C@H](C(=O)N[C@@H](CC1CCC1)C(=O)N[C@H]1CSSC[C@@H](C(=O)N[C@@H](Cc2c[nH]c3ncccc23)C(=O)N2CC[C@H]2C(=O)N[C@H](CCCCNC(=O)CN2CCN(CC(=O)O)CCN(CC(=O)O)CCN(CC(=O)O)CC2)C(N)=O)NC(=O)[C@H](CC(=O)O)NC(=O)[C@H](Cc2cnc[nH]2)NC(=O)[C@H](Cc2ccc(C(F)(F)F)cc2)NC(=O)[C@H](CC(N)=O)NC(=O)[C@H](CC(N)=O)NC1=O)[C@@H](C)O [compound 142, Ac-(5Fluoro-W)-T-(CBA)-C(3)-N-N-(4CF3-F)-H-D-C(3)-(7Aza-W)-(Aze)-[D-Lys(DOTA)]-NH2] (Ac-[Trp(5-F)]T[Cba]CNN[Phe(4-CF3)]HDC[Trp(7-aza)][Aze][dK](DOTA)-NH2; disulfide 4-10)
1 to 10 | CC(=O)N[C@@H](Cc1c[nH]c2ccc(F)cc12)C(=O)N[C@H](C(=O)N[C@H](C(=O)N[C@H]1CSSC[C@@H](C(=O)N[C@@H](Cc2c[nH]c3ncccc23)C(=O)N2CC[C@H]2C(=O)N[C@H](CCCCNC(=O)CN2CCN(CC(=O)O)CCN(CC(=O)O)CCN(CC(=O)O)CC2)C(N)=O)NC(=O)[C@H](CC(=O)O)NC(=O)[C@H](Cc2cnc[nH]2)NC(=O)[C@H](Cc2ccc(C(F)(F)F)cc2)NC(=O)[C@H](CC(N)=O)NC(=O)[C@H](CC(N)=O)NC1=O)C1CCCCC1)[C@@H](C)O [compound 143, Ac-(5Fluoro-W)-T-(Chg)-C(3)-N-N-(4CF3-F)-H-D-C(3)-(7Aza-W)-(Aze)-[D-Lys(DOTA)]-NH2] (Ac-[Trp(5-F)]T[Chg]CNN[Phe(4-CF3)]HDC[Trp(7-aza)][Aze][dK](DOTA)-NH2; disulfide 4-10)
1 to 10 | CC(=O)N[C@@H](Cc1c[nH]c2ccc(F)cc12)C(=O)N[C@H](C(=O)N[C@H](C(=O)N[C@H]1CSSC[C@@H](C(=O)N[C@@H](Cc2c[nH]c3ncccc23)C(=O)N2C[C@H](F)C[C@H]2C(=O)N[C@H](CCCCNC(=O)CN2CCN(CC(=O)O)CCN(CC(=O)O)CCN(CC(=O)O)CC2)C(N)=O)NC(=O)[C@H](CC(=O)O)NC(=O)[C@H](Cc2cnc[nH]2)NC(=O)[C@H](Cc2ccc(C(F)(F)F)cc2)NC(=O)[C@H](CC(N)=O)NC(=O)[C@H](CC(N)=O)NC1=O)C1CCOCC1)[C@@H](C)O [compound 147, Ac-(5Fluoro-W)-T-(THPG)-C(3)-N-N-(4CF3-F)-H-D-C(3)-(7Aza-W)-(trans4Fluoro-P)-[D-Lys(DOTA)]-NH2] (Ac-[Trp(5-F)]T[Gly(4-THP)]CNN[Phe(4-CF3)]HDC[Trp(7-aza)][Pro(trans-4-F)][dK](DOTA)-NH2; disulfide 4-10)
